A melting point compilation (Tetko et al.; mined from patent text by program, amines drawn as free bases though some values may be those of a salt)

Row | melting point [°C] | SMILES
1 | 210 to 215 | COc1ccc(-c2nc3nccnc3[nH]2)c(OC)c1
2 | 176 to 178 | Cc1cc(Cl)c2[nH]nc(C)c2n1
3 | 128 to 130 | COC(=O)C1Cc2c([nH]c3ccccc23)C(c2ccc(Cl)cc2Cl)N1 (centres undefined)
4 | 75.5 to 76.5 | CC(C)(CO)CCNC(=O)OC(C)(C)C
5 | 121 to 122 | CC(C#CC1=C(C)C(O)C(O)C1(C)C)=CCO (centres undefined)
6 | 166 | COC(=O)c1c(-c2ccc(Cl)cc2)c2cc(OCc3ccccc3)ccc2c(=O)n1CC(C)C
7 | 214 to 215 | COc1cc2ncc(C#N)c(Cl)c2cc1[N+](=O)[O-]
8 | 56 to 58 | CCCCCCCCCCCCCCCCN(CC(O)CO)C(C)=O (centres undefined)
9 | 267 | CCCc1c2oc(C(=O)O)cc(=O)c2cc2c(=O)cc(N(C(C)=O)C(C)=O)oc12
10 | 122 to 123 | Cc1cccc(COc2cccc(OCc3ccc(C(C)(C)C)cc3)c2)c1C(=O)O
11 | 56 to 57 | CCCCCCCCCCCCCCCCn1cccc1C1=CC(=O)c2ccccc2C1=O
12 | 120 to 121 | CN(C)CCCOc1ccc2c(c1)SCC(=O)N2
13 | 174 to 176 | CCCCc1nc2c(N)nc3cc(-c4ccccc4OCCC)ccc3c2n1CC(C)C
14 | 205 to 207 | Cc1nn(CC(F)(F)F)c(C(N)=O)c1[N+](=O)[O-]
15 | 143 to 144 | Cn1c(=O)ccc2cnc(N3CCC[C@H]3CO)nc21
16 | 95 to 96 | N#CNc1ccccc1-c1ccc(F)cc1

Row | melting point [°C] | SMILES
17 | 173 to 175 | N#CCOC(=O)c1ccc(C(c2ccccc2)(c2ccccc2)c2ccccc2)cn1
18 | 95 | OC(COc1ccccc1Cl)(Cn1cncn1)Cn1cncn1
19 | 146 to 148 | COc1ccc(N2CCN(c3c(C)c(C)c4c(c3C)C(Cc3ccccc3)C(C)(C)O4)CC2)cc1 (centres undefined)
20 | 63 to 64 | Cc1ccc2c(c1)CC(Cl)c1cc(F)ccc1S2 (centres undefined)
21 | 305 to 307 | CC1CCc2cc(C3=NNC(=O)C4CC34)ccc2NC1=O (centres undefined)
22 | 89 to 92 | CC(Cc1c[nH]c2ccccc12)NC(=O)Oc1ccccc1 (centres undefined)
23 | 296 | Nc1cc2[nH]c(=O)oc2cc1NC(=O)C(=O)N1CCC(Cc2ccccc2)CC1
24 | 144 | CC1Oc2c(C#N)cc(F)cc2C=C1n1nc(C(F)(F)F)n(C)c1=S (centres undefined)
25 | 123 to 124 | COC(=O)CC(C)C1CCC2C3CC=C4CC(OC(C)=O)CC(OC(C)=O)C4(C)C3CCC12C (centres undefined)
26 | 242 to 245 | CS(=O)(=O)c1ccc(Nc2nccc(N3CCCc4c(O)cccc43)n2)cc1
27 | > 280 | CN1CC2CN(C(=O)N3c4ccccc4NC(=O)c4c3c(Cl)cn4C)CC2C1 (centres undefined)
28 | > 300 | Cc1c(O)nc2ccccc2c1C(=O)O
29 | 115 to 120 | CN(C)C=C(Cc1ccccc1)C(=O)c1cccnc1Cl
30 | 161 to 163 | N#CC(C=O)c1ccccc1 (centres undefined)
31 | 117 | CCO[C@@H]1C[C@H](C(=O)Nc2ccc(N3CCOCC3=O)c(C)c2)N(C(=O)Nc2ccc(Cl)cc2)C1
32 | 60.5 to 64.1 | COC(=O)c1cc(Cl)ncc1[N+](=O)[O-]

The next lines start with the compound.

Row | SMILES | melting point [°C]
33 | CC(C)CCNC1(c2ccccc2Cl)C(=O)Nc2ccc(Cl)cc21 (centres undefined) | 152
34 | CCOC(=O)CC(NC(=O)c1ccccc1)C(=O)c1ccsc1 (centres undefined) | 62 to 63
35 | CC(C)(C)c1ccc(C(=O)Nc2cn3cc(-c4ccsc4)ccc3n2)cc1 | 261 to 263
36 | Oc1cccc(-n2cnc(-c3ccccc3)c2)c1 | 195 to 197
37 | CCC(CC)(CC(=O)O)C(=O)O | 106 to 109
38 | O=C(O)CCC(=O)NC1CCCCC1 | 168 to 170
39 | CC(=O)Nc1cc([N+](=O)[O-])ccc1OCC(C)O (centres undefined) | 123
40 | Clc1nc2c(c(N[C@@H]3CCC[C@H]3OCc3ccccc3)n1)SCC2 | 157 to 158
41 | CCN(CC)CCN=C=S | 83 to 83.5
42 | CN(C)CCCCCCNCc1ccc(-c2cc3ncnc(Nc4ccc5[nH]ccc5c4)c3s2)cc1 | 134 to 148
43 | CC(CCCO)C1CCC2C3C(OCc4ccccc4)CC4CC(OC5CCCCO5)CCC4(C)C3CCC12C (centres undefined) | 52 to 55
44 | COc1ccc2cc([C@H](C)C(=O)OC(C)C(=O)NCC(=O)O)ccc2c1 (some centres undefined) | 174 to 175
45 | CNC(=S)N1CCCC(N2CCC(Nc3nc4ccccc4n3Cc3ccc(F)cc3)CC2)C1 (centres undefined) | 219
46 | CCCc1c(OCCCOc2cc(NC(=O)C(=O)O)c(C)cc2Cl)ccc(C(C)=O)c1O | 188 to 189
47 | N=C(N)c1c[nH]c2ccc(CCNC(=O)c3ccc(-c4ccnc(N5CCCC5C(N)=O)n4)cc3)cc12 (centres undefined) | 139 to 141
48 | OCc1cccc(/C=C/c2ccc3ccc(Cl)cc3n2)c1 | 141
49 | CCCCn1c(=O)cnn(-c2ccc(N3CCN(c4ccc(O)cc4)CC3)cc2)c1=O | 202
50 | CCN(CC)Cc1cccc(OCCCNc2nc(N)nn2C)c1 | 68 to 69
51 | O=C(OC(c1ccccc1)c1ccccc1)C(=C(CBr)N1CCOCC1)N1C(=O)C2N=C(Cc3ccccc3)SC21 (centres undefined) | 93 to 96
52 | O=S(=O)(CC1(O)CN2CCC1CC2)c1ccc(-c2ccccc2)cc1 (centres undefined) | 203 to 205
53 | COC(=O)C=CC(=O)c1ccc(Oc2ccccc2)cc1 | 88 to 90
54 | COc1ccc(C2=NCC(NN)=Nc3ccc(Cl)cc32)cc1 | 213 to 215
55 | COc1c(C)c(N2CCN(c3ccc(C)cc3)CC2)c(C)c2c1OC(C)(C)C2 | 150 to 152

Row | SMILES | melting point [°C]
56 | COc1cccc(Sc2ccnc(Nc3cccc(CN)c3)n2)c1 | 120 to 121
57 | CC(C)n1nc(-c2c(-c3ccccc3)nn3ccc(NC(=O)c4ccccc4)cc23)ccc1=O | 266 to 267
58 | O=C(O)c1cccc2c1CC(c1csc(-c3ccncc3)n1)C(=O)N2 (centres undefined) | > 250
59 | CC(C)(C)C=C[C@H](O)c1ccc(C(F)(F)F)cc1 | 30 to 32
60 | COc1cc2sc(C)nc2cc1C | 89 to 90
61 | CCn1cc(Cl)c2cnc(NC(=O)c3ccc([C@](C)(O)CO)cc3)cc21 | 223 to 224
62 | CC(=O)OC1CCC2(C)C(CCC3=C4C(=O)CC(C(C)CCCOS(=O)(=O)c5ccc(C)cc5)C4(C)CCC32)C1 (centres undefined) | 158 to 160
63 | Cc1c(CN(CCc2c(I)c3ccccc3n2C)C(=O)C(F)(F)F)ncn1S(=O)(=O)N(C)C | 141 to 143
64 | Cc1ccc(CNC(=O)c2ccnc(NC(=O)c3ccccc3)c2)cc1 | 135 to 138
65 | O=C(O)c1cc2cc(C(F)(F)F)cnc2n1Cc1ccncc1 | 302 to 303
66 | CN(CCSC(=O)Cc1ccccc1Nc1c(Cl)cccc1Cl)CC1(SN=O)CCCCC1 | 115 to 129
67 | COc1ccc(CN(C)CCCc2ccc(NC(=O)c3cccc4c(=O)c5cccc(F)c5[nH]c34)c(C)c2)cc1OC | 132
68 | Cc1cccc(-c2nc3ccccn3c2-c2ccnc(-c3ccc(OC(F)(F)F)cc3)c2)n1 | 120
69 | CC(C)n1nc(-c2c(OCCN3C(=O)c4ccccc4C3=O)nc(N)nc2-c2ccccc2)ccc1=O | 232
70 | CCCCOCCOc1ccc(-c2ccc3c(c2)C=C(C(=O)Nc2ccc(CCCn4cnnc4)cc2)CCN3CCC)cc1 | 191 to 194
71 | O=S1(=O)NCN(C2CCCCCC2)c2cc(Cl)ccc21 | 149 to 151
72 | O=C(O)CN1C(=O)[C@@H](N[C@@H](CCc2ccccc2)C(=O)O)COc2ccccc21 | 127 to 130
73 | N#Cc1c(CCC(=O)O)oc2cc(O)ccc2c1=O | 300 to 301
74 | CO[C@]1(c2cc(F)cc(OCc3ccc4c(ccc(=O)n4C)c3)c2)CCO[C@@H](C)C1 | 91 to 93
75 | FC(F)c1nc2ccccc2n1-c1nc(Oc2ccccc2)nc(N2CCOCC2)n1 | 228 to 231
76 | Cc1nc2c(N)nc3ccccc3c2n1CC(C)(C)CC1(C)OCCO1 | 209 to 211
77 | CC(C)OP(=O)(COCCOc1nc(N)nc(N)c1C=O)OC(C)C | 225 to 227
78 | COc1ccc2c(c1)CCC1=C2CCC2(C(C)C)C(=O)CC=C12 (centres undefined) | 112 to 113

Row | SMILES | melting point [°C]
79 | CC(C)(C)OC(=O)c1nn(-c2ccc(F)cc2F)c2c1C1CCC2C1 (centres undefined) | 97 to 99
80 | N#Cc1cccc(C2C3=C(CCS3)NC3=C2SCC3)c1 | 248
81 | Cc1ccc(-c2ccc3c(c2)C=C(C(=O)Nc2ccc(CO)cc2)CC3)cc1 | 219 to 220
82 | Cn1c(SCc2ccccc2)nc2cnc3ccccc3c21 | 160 to 163
83 | CCCCOC(=O)c1ccc(CN2CCCN3CCCC32)cc1 (centres undefined) | 64 to 67
84 | O=C(CN1C(=O)C(NC(=O)c2cc3ccccc3[nH]2)C(c2ccccc2)Sc2ccccc21)NCCc1ccccc1 (centres undefined) | 157 to 163
85 | CS(=O)c1cn(-c2c(Cl)cc(C(F)(F)F)cc2Cl)nc1C=NO (centres undefined) | 239 to 240
86 | CC(O)(C(=O)O)c1ccc2c(c1)[nH]c1ccc(Cl)cc12 (centres undefined) | 218 to 220
87 | CCn1cc(C(=O)O)c(=O)c2cc(F)c(N3CC4CCC3CN4)c(F)c21 (centres undefined) | 255 to 257
88 | O=C1CCc2cc(NCC(=O)N3CCC(Cc4ccc(F)cc4)CC3)ccc2N1 | 197 to 200
89 | O=c1[nH]c2ncc(-c3ccc4[nH]cnc4c3)nc2n1CCC1CCOCC1 | 264 to 265
90 | CCOc1cc(C(=O)O)cc(S(N)(=O)=O)c1-c1ccccc1 | 149 to 150
91 | COc1cc(COc2nn(-c3ccccc3)cc2C=O)ccc1OCc1nc(-c2ccccc2)cn1C | 126 to 127
92 | CCn1c(=O)c2c(nc(/C=C/c3ccc(-c4ccccc4)cc3)n2C)n(CC)c1=O | 200 to 201
93 | Cc1ccc(-c2c(C(=O)NCc3cc(C(F)(F)F)cc(C(F)(F)F)c3)n(CCCCCO)c(=O)c3ncccc23)cc1 | 136 to 137
94 | COC(=O)c1[nH]c(C)c(Cc2ccccc2)c1N | 143 to 144
95 | CC1(C)CC(OC(=O)c2ccccc2)CC(C)(C)N1O | 145 to 149
96 | COC(=O)c1c(C(=O)O)nc2cc(Cl)ccc2c1O | 215
97 | O=c1[nH]c2cc3ccccc3cc2nc1-c1cc(O)c(O)c([N+](=O)[O-])c1 | > 300
98 | COc1cccc(OC)c1CNC(=O)Cc1c(-c2ccccc2C)c2cc(Cl)ccc2oc1=O | 194 to 196
99 | COc1ccc([C@@H]2c3ccccc3C[C@@H]3CC(=O)NCCN32)cc1 (racemic) | 196 to 198
